Values joined by “and” are separate entries in the source; they are usually repeats but may differ in a detail not shown here. Equal entries are not always repeated. Where two headings read alike, the source gives them in different places.
Assays:
Glutamate, NMDA, Glycine = Glutamate, NMDA, Glycine (Rattus norvegicus, UniProt P35439); assay: Glutamate NMDA glycine [3H]MDL 105,519 binding; details: read-out: % Inhibition of control specific binding, Glutamate, NMDA, Glycine [3H] MDL 105,519
Source text: (§1) The general information is listed in the Supporting Information.

[1] = target: T1, Norepinephrine transporter (h) (Homo sapiens, UniProt P23975); assay: Norepinephrine transporter (h) (antagonist radioligand); type: binding; details: read-out: % Inhibition, Norepinephrine transporter (h)
T1 construct: purchased Cerep (Eurofins), Poitiers, France; Promega P450-Glo; in-house COS-7 uptake assays
Source text: as §1

GlyRA1 = target: T2, GlyRA1 (Homo sapiens, UniProt P23415); type: cell-based
T2 construct: purchased Cerep (Eurofins), Poitiers, France; Promega P450-Glo; in-house COS-7 uptake assays
T2 sequence (P23415 29-457): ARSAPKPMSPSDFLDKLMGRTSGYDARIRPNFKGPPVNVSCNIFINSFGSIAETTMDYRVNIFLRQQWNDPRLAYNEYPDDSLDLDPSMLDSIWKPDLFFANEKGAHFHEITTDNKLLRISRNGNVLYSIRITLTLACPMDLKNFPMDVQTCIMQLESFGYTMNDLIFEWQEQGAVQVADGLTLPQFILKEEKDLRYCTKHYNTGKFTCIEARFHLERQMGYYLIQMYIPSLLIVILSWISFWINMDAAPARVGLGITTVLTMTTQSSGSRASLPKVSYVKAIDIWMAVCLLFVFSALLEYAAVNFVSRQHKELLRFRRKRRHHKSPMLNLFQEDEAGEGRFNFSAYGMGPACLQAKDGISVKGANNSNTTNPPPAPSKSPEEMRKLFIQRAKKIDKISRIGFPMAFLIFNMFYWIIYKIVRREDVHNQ

hERG potassium channel = hERG potassium channel (Homo sapiens, UniProt Q12809); assay: in vitro
mGlu2 (h) = target: T3, mGlu2 (h) (Homo sapiens, UniProt Q14416); assay: mGlu2 (h) binding (antagonist radioligand); details: human recombinant (Chem-1 cells), read-out: % Inhibition of control specific binding, mGlu2 (h)
T3 construct: purchased Cerep (Eurofins), Poitiers, France; Promega P450-Glo; in-house COS-7 uptake assays
Source text: as §1

D1 (h) = target: T4, D1 (h) (Homo sapiens, UniProt P21728); assay: D1 (h) functional assay; type: cell-based
T4 construct: purchased Cerep (Eurofins), Poitiers, France; Promega P450-Glo; in-house COS-7 uptake assays
Source text: as §1

[2] = 100 mg/kg i.p., mice
Alpha 1A (h) = target: T5, Alpha 1A (h) (Homo sapiens, UniProt P35348); assay: Alpha 1A (h) functional assay; type: cell-based
T5 construct: purchased Cerep (Eurofins), Poitiers, France; Promega P450-Glo; in-house COS-7 uptake assays
Source text: as §1

hCav3.2 = hCav3.2 (Homo sapiens, UniProt O95180); assay: cell-based
mGluR1 = target: T6, mGluR1 (Rattus norvegicus, UniProt P23385); assay: mGluR1 binding (agonist radioligand); details: read-out: % Inhibition of control specific binding, mGluR1
T6 construct: purchased Cerep (Eurofins), Poitiers, France; Promega P450-Glo; in-house COS-7 uptake assays

recombinant human CYP2C9 = target: T7, recombinant human CYP2C9 (Homo sapiens, UniProt P11712); assay: CYP2C9 activity assay; type: in vitro ADME; details: comparable to the racemate
T7 construct: purchased Cerep (Eurofins), Poitiers, France; Promega P450-Glo; in-house COS-7 uptake assays

Dopamine transporter (h) = target: T8, Dopamine transporter (h) (Homo sapiens, UniProt Q01959); assay: Dopamine transporter (h) (antagonist radioligand); type: binding; details: read-out: % Inhibition, Dopamine transporter (h)
T8 construct: purchased Cerep (Eurofins), Poitiers, France; Promega P450-Glo; in-house COS-7 uptake assays
Source text: as §1

5-HT7 (h) = target: T9, 5-HT7 (h) (Homo sapiens, UniProt P34969); assay: 5-HT7 (h) functional assay; type: cell-based
T9 construct: purchased Cerep (Eurofins), Poitiers, France; Promega P450-Glo; in-house COS-7 uptake assays
Source text: as §1

Acetylcholinesterase (h) = target: T10, Acetylcholinesterase (h) (Homo sapiens, UniProt P22303); assay: Acetylcholinesterase (h) enzymatic activity; type: biochemical; details: read-out: % Inhibition, Acetylcholinesterase (h) enzymatic activity
T10 construct: purchased Cerep (Eurofins), Poitiers, France; Promega P450-Glo; in-house COS-7 uptake assays
Source text: as §1

EAAT3 = EAAT3 (Homo sapiens, UniProt P43005); details: transfected COS-7 cells
CB1 (h) = target: T11, CB1 (h) (Homo sapiens, UniProt P21554); assay: CB1 (h) functional assay; type: cell-based
T11 construct: purchased Cerep (Eurofins), Poitiers, France; Promega P450-Glo; in-house COS-7 uptake assays
Source text: as §1

mGluR5 (h) = target: T12, mGluR5 (h) (Homo sapiens, UniProt P41594); assay: mGluR5 (h) binding (agonist radioligand); details: human recombinant, read-out: % Inhibition of control specific binding, mGluR5 (h)
T12 construct: purchased Cerep (Eurofins), Poitiers, France; Promega P450-Glo; in-house COS-7 uptake assays
Source text: as §1

5-HT6 (h) = target: T13, 5-HT6 (h) (Homo sapiens, UniProt P50406); assay: 5-HT6 (h) functional assay; type: cell-based
T13 construct: purchased Cerep (Eurofins), Poitiers, France; Promega P450-Glo; in-house COS-7 uptake assays
Source text: as §1

sst2 (h) = target: T14, sst2 (h) (Homo sapiens, UniProt P30874); assay: sst2 (h) functional assay; type: cell-based
T14 construct: purchased Cerep (Eurofins), Poitiers, France; Promega P450-Glo; in-house COS-7 uptake assays
Source text: as §1

sst4 (h) = target: T15, sst4 (h) (Homo sapiens, UniProt P31391); assay: sst4 (h) functional assay; type: cell-based
T15 construct: purchased Cerep (Eurofins), Poitiers, France; Promega P450-Glo; in-house COS-7 uptake assays
Source text: as §1

recombinant human CYP3A4 = target: T16, recombinant human CYP3A4 (Homo sapiens, UniProt P08684); assay: CYP3A4 P450-Glo assay; type: in vitro ADME
T16 construct: purchased Cerep (Eurofins), Poitiers, France; Promega P450-Glo; in-house COS-7 uptake assays
Source text: (§2) The luminescent CYP3A4 P450-Glo and CYP2D6 P450-Glo assays and protocols were provided by Promega (Madison, WI).[98] The procedures were provided by the manufacturer and were similar as previously reported for the racemate I.[29]

[3] = target: T17, GLYT1 Glycine Transporter (Homo sapiens, UniProt P48067); assay: GLYT1 glycine transporter binding; details: rat brain, listed as (R)-7 [(R)-AS-1]
T17 construct: purchased Cerep (Eurofins), Poitiers, France; Promega P450-Glo; in-house COS-7 uptake assays
Source text: as §1

EAAT1 = EAAT1 (Homo sapiens, UniProt P43003); details: transfected COS-7 cells
recombinant human CYP2D6 = target: T18, recombinant human CYP2D6 (Homo sapiens, UniProt P10635); assay: CYP2D6 P450-Glo assay; type: in vitro ADME; details: only at the highest concentration of 25 μM
T18 construct: purchased Cerep (Eurofins), Poitiers, France; Promega P450-Glo; in-house COS-7 uptake assays
Source text: as §2

human SV2A = target: T19, human SV2A (Homo sapiens, UniProt Q7L0J3); assay: SV2A radioligand binding assay ([3H]brivaracetam); details: [3H]brivaracetam 3 nM, human SV2A-expressing CHO cell lysate
T19 construct: expressed in transfected cells; host or cells: CHO cells
Method: (§3) The competitive radioligand-binding assay was essentially performed as previously described.[96],[97] The SV2A-containing preparations, either cell lysate of human SV2A-expressing CHO cells, or membrane preparations of mouse brain cortex, were incubated with the radioligand [^3H]brivaracetam (3 nM) in the absence or presence of test compound for 4 h. Incubation was performed in 500 μL of Tris-buffer (50 mM Tris–HCl, pH 7.4) containing 2 mM MgCl2 at 4 °C on a rocking shaker. […] The test compounds were dissolved in dimethyl sulfoxide (DMSO) and further diluted in DMSO. The DMSO concentration in all vials was adjusted to 2%. The separation of bound and unbound radioligand was performed via rapid vacuum filtration using GF/C glass fiber filters that had been presoaked in Tris-buffer containing 0.1% polyethyleneimine for 30 min. The filters were rapidly washed three times with about 1 mL of Tris-buffer each and subsequently placed in a drying oven at 50 °C for 90 min. The filters were then transferred to scintillation vials and 2.5 mL of scintillation cocktail (ProSafe FC+, Meridian Biotechnologies Ltd.) was added. After an incubation period of at least 9 h, radioactivity was measured in a scintillation counter. Results were analyzed by GraphPad Prism 7.0.

mouse SV2A = target: T20, mouse SV2A (Mus musculus, UniProt Q9JIS5); assay: SV2A radioligand binding assay ([3H]brivaracetam); details: mouse brain cortex membranes
T20 construct: membrane preparations of mouse brain cortex; from tissue; host or cells: mouse brain cortex membranes
Method: as §3

D2L (h) = target: T21, D2L (h) (Homo sapiens, UniProt P14416); assay: D2L (h) functional assay; type: cell-based
T21 construct: purchased Cerep (Eurofins), Poitiers, France; Promega P450-Glo; in-house COS-7 uptake assays
Source text: as §1

[4] = 100 μM, listed as (R)-7 [(R)-AS-1]
[5] = 10 μM, listed as (R)-7 [(R)-AS-1]

T21 sequence (P14416 whole entry): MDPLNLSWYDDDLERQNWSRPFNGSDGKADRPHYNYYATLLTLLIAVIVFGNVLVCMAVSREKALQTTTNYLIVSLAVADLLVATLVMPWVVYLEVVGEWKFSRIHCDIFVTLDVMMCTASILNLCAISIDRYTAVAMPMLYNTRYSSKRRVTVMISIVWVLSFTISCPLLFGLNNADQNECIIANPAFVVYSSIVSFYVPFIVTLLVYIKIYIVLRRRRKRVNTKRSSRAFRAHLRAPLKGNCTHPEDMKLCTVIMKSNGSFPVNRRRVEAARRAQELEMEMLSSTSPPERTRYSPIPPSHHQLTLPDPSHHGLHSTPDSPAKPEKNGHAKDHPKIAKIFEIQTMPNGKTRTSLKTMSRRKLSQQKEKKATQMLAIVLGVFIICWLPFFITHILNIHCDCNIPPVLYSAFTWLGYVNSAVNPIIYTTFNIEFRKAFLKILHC
T14 sequence (P30874 whole entry): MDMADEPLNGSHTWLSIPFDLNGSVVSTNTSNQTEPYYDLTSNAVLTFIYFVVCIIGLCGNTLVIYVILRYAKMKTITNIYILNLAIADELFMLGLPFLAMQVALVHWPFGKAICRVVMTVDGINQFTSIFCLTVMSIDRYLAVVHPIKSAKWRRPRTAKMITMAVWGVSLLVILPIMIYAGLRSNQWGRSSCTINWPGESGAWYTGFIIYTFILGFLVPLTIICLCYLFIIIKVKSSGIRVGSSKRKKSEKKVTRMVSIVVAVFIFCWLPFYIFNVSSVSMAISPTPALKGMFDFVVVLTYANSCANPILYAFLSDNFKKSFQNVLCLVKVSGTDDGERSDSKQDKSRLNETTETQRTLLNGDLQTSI
T13 sequence (P50406 whole entry): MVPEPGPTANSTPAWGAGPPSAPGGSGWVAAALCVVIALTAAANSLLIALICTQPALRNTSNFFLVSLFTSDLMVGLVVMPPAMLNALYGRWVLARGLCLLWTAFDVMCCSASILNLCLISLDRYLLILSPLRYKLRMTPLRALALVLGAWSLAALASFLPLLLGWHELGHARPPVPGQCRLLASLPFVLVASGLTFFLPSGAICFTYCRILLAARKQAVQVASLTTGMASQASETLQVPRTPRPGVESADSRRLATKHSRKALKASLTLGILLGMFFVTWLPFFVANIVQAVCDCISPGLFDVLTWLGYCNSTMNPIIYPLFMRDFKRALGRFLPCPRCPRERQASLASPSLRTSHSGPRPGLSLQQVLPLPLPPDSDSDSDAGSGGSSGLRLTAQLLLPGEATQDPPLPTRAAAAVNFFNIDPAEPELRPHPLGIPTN
T17 sequence (P48067 whole entry): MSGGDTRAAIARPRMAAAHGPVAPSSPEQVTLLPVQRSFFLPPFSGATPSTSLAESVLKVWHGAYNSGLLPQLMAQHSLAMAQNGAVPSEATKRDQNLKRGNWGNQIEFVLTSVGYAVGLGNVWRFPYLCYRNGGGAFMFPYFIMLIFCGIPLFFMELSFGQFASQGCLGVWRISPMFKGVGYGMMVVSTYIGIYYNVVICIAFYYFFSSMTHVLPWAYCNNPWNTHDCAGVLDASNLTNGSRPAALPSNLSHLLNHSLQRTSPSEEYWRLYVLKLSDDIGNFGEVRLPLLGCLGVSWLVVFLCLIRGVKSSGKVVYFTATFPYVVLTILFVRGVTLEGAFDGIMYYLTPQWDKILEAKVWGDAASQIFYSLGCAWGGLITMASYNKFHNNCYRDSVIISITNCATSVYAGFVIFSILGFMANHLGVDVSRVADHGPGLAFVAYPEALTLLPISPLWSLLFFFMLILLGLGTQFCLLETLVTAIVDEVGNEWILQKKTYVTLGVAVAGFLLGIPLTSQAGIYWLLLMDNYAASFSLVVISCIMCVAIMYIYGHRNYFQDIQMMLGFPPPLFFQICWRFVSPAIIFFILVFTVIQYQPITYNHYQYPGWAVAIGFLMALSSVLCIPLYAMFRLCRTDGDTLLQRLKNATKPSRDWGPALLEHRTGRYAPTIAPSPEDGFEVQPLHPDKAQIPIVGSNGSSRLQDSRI
T9 sequence (P34969 whole entry): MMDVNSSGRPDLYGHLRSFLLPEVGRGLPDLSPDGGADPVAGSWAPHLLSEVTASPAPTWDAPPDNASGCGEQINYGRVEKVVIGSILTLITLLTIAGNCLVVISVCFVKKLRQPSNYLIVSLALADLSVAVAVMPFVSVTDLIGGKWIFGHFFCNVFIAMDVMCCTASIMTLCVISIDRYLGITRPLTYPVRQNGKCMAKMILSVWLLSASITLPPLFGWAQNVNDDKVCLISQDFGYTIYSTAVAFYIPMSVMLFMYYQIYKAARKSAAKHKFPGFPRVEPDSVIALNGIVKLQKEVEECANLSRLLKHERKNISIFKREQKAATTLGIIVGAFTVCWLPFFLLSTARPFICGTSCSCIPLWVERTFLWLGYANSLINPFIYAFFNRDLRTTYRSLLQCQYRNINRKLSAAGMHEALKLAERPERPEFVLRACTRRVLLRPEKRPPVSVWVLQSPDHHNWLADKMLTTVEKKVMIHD
T19 sequence (Q7L0J3 whole entry): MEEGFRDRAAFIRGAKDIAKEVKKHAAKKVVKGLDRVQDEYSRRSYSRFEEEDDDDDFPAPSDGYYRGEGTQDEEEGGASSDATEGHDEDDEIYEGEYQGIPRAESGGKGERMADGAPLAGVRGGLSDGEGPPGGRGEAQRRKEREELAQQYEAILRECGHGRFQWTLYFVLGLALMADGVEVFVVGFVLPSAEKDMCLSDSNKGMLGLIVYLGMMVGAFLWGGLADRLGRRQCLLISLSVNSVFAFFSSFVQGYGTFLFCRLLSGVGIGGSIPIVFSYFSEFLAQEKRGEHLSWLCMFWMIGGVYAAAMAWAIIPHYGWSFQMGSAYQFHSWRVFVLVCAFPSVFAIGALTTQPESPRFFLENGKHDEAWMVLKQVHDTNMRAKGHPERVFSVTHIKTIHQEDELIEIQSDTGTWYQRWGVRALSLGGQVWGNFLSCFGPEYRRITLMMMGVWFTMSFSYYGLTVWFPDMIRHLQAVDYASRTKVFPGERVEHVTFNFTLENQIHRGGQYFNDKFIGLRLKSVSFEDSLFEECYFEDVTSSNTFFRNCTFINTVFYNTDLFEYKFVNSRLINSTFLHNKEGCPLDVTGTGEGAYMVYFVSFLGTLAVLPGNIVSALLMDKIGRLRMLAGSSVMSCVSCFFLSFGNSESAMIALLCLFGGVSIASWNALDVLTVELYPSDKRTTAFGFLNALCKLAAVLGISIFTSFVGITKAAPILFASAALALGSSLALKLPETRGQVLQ
T11 sequence (P21554 whole entry): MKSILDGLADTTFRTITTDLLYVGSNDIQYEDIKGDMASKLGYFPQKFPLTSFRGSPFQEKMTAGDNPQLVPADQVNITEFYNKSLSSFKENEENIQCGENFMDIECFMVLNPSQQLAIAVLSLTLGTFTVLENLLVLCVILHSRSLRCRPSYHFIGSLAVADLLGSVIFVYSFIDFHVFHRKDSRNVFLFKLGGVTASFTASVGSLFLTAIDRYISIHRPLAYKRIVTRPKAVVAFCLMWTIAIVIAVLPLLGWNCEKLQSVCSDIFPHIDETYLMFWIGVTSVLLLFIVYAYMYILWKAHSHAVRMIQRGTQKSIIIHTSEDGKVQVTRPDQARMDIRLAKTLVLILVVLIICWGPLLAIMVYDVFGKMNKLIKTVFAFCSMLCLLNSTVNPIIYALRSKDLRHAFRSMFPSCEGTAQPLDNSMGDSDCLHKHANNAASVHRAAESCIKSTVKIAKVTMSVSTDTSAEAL
T4 sequence (P21728 whole entry): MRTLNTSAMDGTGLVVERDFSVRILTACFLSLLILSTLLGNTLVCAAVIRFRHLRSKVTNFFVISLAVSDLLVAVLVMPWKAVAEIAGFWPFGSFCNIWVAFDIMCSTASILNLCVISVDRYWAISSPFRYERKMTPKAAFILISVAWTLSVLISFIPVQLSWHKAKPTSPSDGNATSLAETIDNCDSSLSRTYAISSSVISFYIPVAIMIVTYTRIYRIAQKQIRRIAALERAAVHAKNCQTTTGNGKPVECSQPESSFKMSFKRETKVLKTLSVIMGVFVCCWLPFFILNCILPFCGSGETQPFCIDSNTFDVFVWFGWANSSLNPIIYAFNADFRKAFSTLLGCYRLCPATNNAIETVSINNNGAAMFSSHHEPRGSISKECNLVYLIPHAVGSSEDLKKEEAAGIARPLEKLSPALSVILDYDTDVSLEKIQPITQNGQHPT
T5 sequence (P35348 whole entry): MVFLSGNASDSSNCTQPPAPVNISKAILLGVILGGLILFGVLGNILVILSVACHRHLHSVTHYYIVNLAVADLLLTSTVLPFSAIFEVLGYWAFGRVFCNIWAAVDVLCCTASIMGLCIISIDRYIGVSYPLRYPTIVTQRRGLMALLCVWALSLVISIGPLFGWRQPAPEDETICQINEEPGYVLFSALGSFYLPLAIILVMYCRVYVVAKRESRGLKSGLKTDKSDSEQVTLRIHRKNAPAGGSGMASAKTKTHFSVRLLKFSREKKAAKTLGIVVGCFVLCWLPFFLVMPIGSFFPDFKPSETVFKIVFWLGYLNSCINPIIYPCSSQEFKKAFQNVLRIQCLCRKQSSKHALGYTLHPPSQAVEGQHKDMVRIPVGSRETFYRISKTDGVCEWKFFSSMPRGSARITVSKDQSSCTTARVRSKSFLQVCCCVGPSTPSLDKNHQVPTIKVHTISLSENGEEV
T15 sequence (P31391 whole entry): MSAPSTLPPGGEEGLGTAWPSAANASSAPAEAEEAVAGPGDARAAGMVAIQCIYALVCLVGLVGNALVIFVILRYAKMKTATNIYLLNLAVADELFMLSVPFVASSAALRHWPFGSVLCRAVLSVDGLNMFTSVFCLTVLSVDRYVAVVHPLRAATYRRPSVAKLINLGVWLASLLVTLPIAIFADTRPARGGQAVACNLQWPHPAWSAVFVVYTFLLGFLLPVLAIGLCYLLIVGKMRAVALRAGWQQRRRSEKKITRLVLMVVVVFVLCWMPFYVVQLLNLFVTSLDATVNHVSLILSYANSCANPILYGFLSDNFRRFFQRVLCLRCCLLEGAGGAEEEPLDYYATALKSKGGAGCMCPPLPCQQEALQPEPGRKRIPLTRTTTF
T20 sequence (Q9JIS5 whole entry): as the sequence (Q7L0J3 whole entry) above, with S62A, T71A, E144D, A154T, G440S, S482A, I572V, M634L counted along it

## C[C@H](C(=O)NCc1ccccc1)N1C(=O)CCC1=O [(R)-7, (R)-N-Benzyl-2-(2,5-dioxopyrrolidin-1-yl)propanamide]
Glutamate, NMDA, Glycine
  inhibition at 10 µM: -3%
[1]
  inhibition at 100 µM: 3.01%
GlyRA1
  GlyRA1 agonist, % Control, Mean: 1.94% and 1.94 (100 µM) %
  GlyRA1 agonist, % Control, n1: 1.83%
  GlyRA1 agonist, % Control, n2: 2.05%
hERG potassium channel
  inhibition at 100 µM: -8.02%
mGlu2 (h)
  inhibition at 50 µM: -8%
D1 (h); [4]
  % Effect, D1 (h) (Agonist effect): 1.70% and 1.70 (100 µM) %
D1 (h); read-out: % Inhibition, D1 (h) (Antagonist effect)
  inhibition at 100 µM: -2.57%
[2]; listed as (R)-7 [(R)-AS-1]
  AUC0–∞, brain: 2813.0 μg·min/mL(g) and 2813.04 μg·min/mL(g)
  AUC0–∞, serum: 4625.8 μg·min/mL(g) and 4625.78 μg·min/mL(g)
  Cmax, serum: 82.7 μg/mL(g) and 82.73 μg/mL(g)
[2]; noncompartmental approach
  total clearance: approx. 0.6 mL/min
Alpha 1A (h); [4]
  % Effect, Alpha 1A (h) (Agonist effect): -2.05% and 2.05 (100 µM) %
Alpha 1A (h); read-out: % Inhibition, Alpha 1A (h) (Antagonist effect)
  inhibition at 100 µM: 1.28%
hCav3.2; read-out: hCav3.2 % Inhibition, Mean
  inhibition at 100 µM: -0.79%
hCav3.2; read-out: hCav3.2 % Inhibition, n1
  inhibition at 100 µM: 5.25%
hCav3.2; read-out: hCav3.2 % Inhibition, n2
  inhibition at 100 µM: -6.84%
mGluR1; 10 μM, rat brain
  inhibition at 10 µM: -6.72%
mGluR1
  inhibition at 100 µM: -6.72%
Recombinant human CYP2C9
  effect in the CYP2C9 assay: moderate inhibitory effect
Dopamine transporter (h)
  inhibition at 100 µM: -2.69%
5-HT7 (h); [5]
  % Effect, 5-HT7 (h) (Agonist effect): -4.26% and -4.26 (10 µM) %
5-HT7 (h); read-out: % Inhibition, 5-HT7 (h) (Antagonist effect)
  inhibition at 10 µM: -25%
Acetylcholinesterase (h)
  inhibition at 10 µM: 1.59%
EAAT3
  effect on EAAT3-mediated glutamate uptake: no effects
CB1 (h); 10 µM (as printed in the xlsx)
  % Effect, CB1 (h) (Agonist effect): -6.83 (10 µM) %
CB1 (h); 100 μM
  % Effect, CB1 (h) (Agonist effect): -6.83%
CB1 (h); read-out: % Inhibition, CB1 (h) (Antagonist effect)
  inhibition at 100 µM: 5.59%
mGluR5 (h)
  inhibition at 10 µM: -7.78%
5-HT6 (h); [4]
  % Effect, 5-HT6 (h) (Agonist effect): -0.26% and -0.26 (100 µM) %
5-HT6 (h); read-out: % Inhibition, 5-HT6 (h) (Antagonist effect)
  inhibition at 100 µM: -6.42%
sst2 (h); [5]
  % Effect, sst2 (h) (Agonist effect): 0.50% and 0.50 (10 µM) %
sst2 (h); 50 μM, read-out: % Inhibition, sst2 (h) (Antagonist effect)
  inhibition at 50 µM: 5.25%
sst4 (h); [5]
  % Effect, sst4 (h) (Agonist effect): -7.88% and -7.88 (10 µM) %
sst4 (h); 50 μM, read-out: % Inhibition, sst4 (h) (Antagonist effect)
  inhibition at 50 µM: 8.25%
Recombinant human CYP3A4; 10 μM, ± SD
  CYP3A4 activity: 100.4 ± 4.2 % of control
Recombinant human CYP3A4; only at the highest concentration of 25 μM
  effect on CYP3A4: slight inhibition
[3]; 10 μM
  % Inhibition of control specific binding, GLYT1 Glycine Transporter: -2.00% and -1.00%
[3]; 100 μM
  % Inhibition of control specific binding, GLYT1 Glycine Transporter: -1.00% and -2.00%
EAAT1
  effect on EAAT1-mediated glutamate uptake: no effects
Recombinant human CYP2D6
  effect on CYP2D6: slight activation
Human SV2A
  Ki: 275 µM and > 250 µM
Mouse SV2A
  Binding to mouse SV2A: no binding observed
D2L (h); [4]
  % Effect, D2L (h) (Agonist effect): 0.22% and 0.22 (100 µM) %
D2L (h); read-out: % Inhibition, D2L (h) (Antagonist effect)
  inhibition at 100 µM: 3.27%

## C[C@@H](C(=O)NCc1ccccc1)N1C(=O)CCC1=O [(S)-7, (S)-N-Benzyl-2-(2,5-dioxopyrrolidin-1-yl)propanamide]
Human SV2A
  Ki: 255 ± 69 µM
Mouse SV2A
  Binding to mouse SV2A: no binding observed

Source: PMC9469208 (Journal of Medicinal Chemistry, 2022)
